Data reported in US6187572A, “Method of inactivation of viral and bacterial blood contaminants” (Baxter International Inc., priority 1993, dated 2001).
Where a name gives a salt, the structure may show the parent alone. Read-outs that look alike come from different tables or passages of the source.

Assays:
[1] = system: platelets; type: cell-based
Description: The viral inactivation values and in vitro properties of platelets subjected to viral inactivation treatment using various derivatives of psoralen are summarized in Table 1.
2 mL PRP samples (plastic disposable petri dishes) containing 0.1 mg/mL
sensitizer were irradiated with UVA for 6 min. (1.19 J/cm^2). The
intensity of UVA radiation at sample position was measured at 3.3
mW/cm^2. The data was obtained from three separate experiments using
different platelet concentrates. Values are mean ± SD.

[2] = system: cell damage; test: Cell damage by derivatives with free hydrogen atoms on the ammonium group; type: cell-based; details: words
[3] = system: salmonella mutants; test: Ames mutagenicity, overall; type: cell-based, Salmonella typhimurium; details: 0.6 mg/ml; words
Description: (§1) The standard Ames mutagenicity test using salmonella mutants was performed on brominated sensitizer 8B at 0.6 mg/ml.

[4] = system: .phi.6 phage; test: Comparison of viral inactivation efficiencies of brominated and non-brominated sensitizers in platelets (UVA); type: cell-based; details: 8B versus 8C, 0.1 mg/ml, UVA 3.3 mW/cm^2
Description: To test the viral inactivation efficiency of brominated sensitizers, platelet preparations (2 ml, PRP) were spiked with .phi.6 phage and brominated psoralen (8B) and non-brominated psoralen(8C) were added to obtain final sensitizer concentration of 0.1 mg/ml. The samples were exposed to UVA light in a home made reactor consisting of 4 UVA lamps for the indicated time periods. The petri dishes containing samples were mixed on an orbital shaker during UVA exposure. The UVA light intensity at the sample position was measured at 3.3 mW/cm^2. The residual viral titre after each time point was measured by plaque method. The viral reduction values are illustrated in FIG. 26.

[5] = system: .phi.6 phage; test: Viral inactivation in single unit platelet concentrates (UVA); type: cell-based; details: light or radiation study, 10 min
Description: (§2) Single unit platelet concentrates were obtained 24 hours after collection from certified blood banks. The platelets were subjected to soft spin to remove residual RBC and about 6 logs of .phi.6 phage and sensitizer 8B were added in PBS solution to obtain 0.03 mg/ml final sensitizer concentration. The samples were transferred to Stericonpolyolefin bag (which transmits 60% of UVA light) and irradiated from top (3.6 mW/cm^2)and bottom (3.4 mW/cm^2) in a home made reactor for 10 min. The bags were continuously mixed on extended glass platform attached to orbital shaker. The viral inactivation values and in vitro properties of platelet concentrates were monitored for 2 days after the treatment.
(§3) Single units of platelet concentrates in Cryocyte ™ bag containing 0.03
(§4) mg/mL #8B sensitizer (Appendix I) were irradiated from top (3.6
(§5) mW/cm^2) and bottom (3.4 mW/cm^2) using UVA radiation in a home
(§6) made reactor for 10 min (4.2 J/cm^2). After the treatment platelet
(§7) concentrates were transferred into original platelet containers and stored
(§8) in a platelet incubator for indicated period of time.
(§9) Platelet viability assays were carried out immediately after treatment and
following 24 & 48 hours storage in a platelet incubator. The viral
(§10) reduction in treated samples was determined by the plaque assay. The
(§11) values are mean ±S.D (n = 3)

[6] = system: red cells; test: Red cell in vitro properties after viral inactivation treatment (UVA); type: cell-based; set-up: MCV / MCH / MCHC: unit not given here; details: for % Hemichrome / % Met Hb. / % Oxy Hb. / MCH / MCHC / MCV / DI Max % control: Treated; for % Hemichrome / % Met Hb. / % Oxy Hb. / MCH / MCHC / MCV: UVA 6 hours; for DI Max % control: ektacytometry
Description: (§12) Units of packed red cells were transferred to Stericon red cell freezing bags and the hematocrits were adjusted to 60% with PBS. The samples were spiked with 5×10^6 PFU/ml .phi.6 phage and 0.3 mg/mL sensitizer 8B. The contents of the bag were exposed to UVA light from top (3.6 mW/cm^2) and bottom (3.4 mW/cm^2) for 6 hours (151.2 J/cm^2). The samples were mixed continuously during UVA exposure on an orbital shaker. The final viral titre in the sample was determined by the plaque method. In vitro biochemical and biophysical properties of treated red cells were monitored for 7 days following the treatment.
DI Max, Deformability index by ektacytometry
(§13) Viral inactivation treatment was carried out in packed red cells (full
(§14) units, 60% Hct.) containing model virus (.phi.6 phage) and 8B sensitizer
(§15) (0.3 mg/mL) in a Sericon red cells freezing bag (altered). The bags were
(§16) irradiated from top (3.6 mW/cm^2) and bottom (3.4 mW/cm^2) in a
(§17) home made reactor for 6 hours (151.2 J/cm^2). The sample was mixed
(§18) continuously during UVA exposure on a orbital shaker.
Data was collected from 3 separate experiments and the values are mean

[7] = system: single unit platelet concentrates; test: Platelet in vitro properties in single unit platelet concentrates after UVA treatment; type: cell-based; set-up: ADP Agg. / Collagen / HSR: unit not given here; details: for ADP Agg. / Cell count / Collagen / HSR / Morphology / pH: Treated, 0.03 mg/mL, UVA 10 min
Description: as §2, §3, §4, §5, §6, §7, §8, §9, §10, §11

[8] = system: λ; test: Inactivation of viruses in human plasma and bovine serum with UV activation; type: cell-based, λ phage; details: light or radiation study, 0.5 h, Fetal bovine serum, 0.03 mg/ml, UVA 30 min (8.4 J/cm^2), read-out: Viral Reduction (log)
Description: Viral inactivation in FBS was carried out in 100 ml serum samples in 225 cm^2 tissue culture flask in the presence of sensitizer 8B (0.03 mg/ml). The sample was exposed to UVA light from top (3.6 mW/cm^2) and bottom (3.4 mW/cm^2) while continuously mixing on an orbital shaker for 30 min. (8.4 J/cm^2). Human plasma was irradiated in a Pyrex glass photolysis cell in the presence of sensitizer 8 (0.1 mg/ml) for 5 min. Inactivation of various bacteriophages were carried out using brominated psoralens in combination with UVA light. The results in Table 5 clearly indicate that 5-7 logs of viral reduction was obtained with various phage (enveloped and non-enveloped) in human plasma fractions and fetal bovine serum products.

[9] = system: Salmonella typhimurium TA98; test: Ames mutagenicity, plate incorporation assay; type: cell-based
Description: as §1

[10] = system: Salmonella typhimurium TA1537; test: Ames mutagenicity, plate incorporation assay; type: cell-based
Description: as §1

[11] = system: Salmonella typhimurium TA100; test: Ames mutagenicity, plate incorporation assay; type: cell-based
Description: as §1

[12] = system: Salmonella typhimurium TA1535; test: Ames mutagenicity, plate incorporation assay; type: cell-based
Description: as §1

[13] = system: Salmonella typhimurium TA1538; test: Ames mutagenicity, plate incorporation assay; type: cell-based
Description: as §1

[14] = system: .phi.6 phage; test: Viral inactivation in red blood cells (UVA, full units); type: cell-based; details: Erythrocyte, light or radiation study
Description: as §12, §13, §14, §15, §16, §17, §18

Cc1oc2c(C)c3oc(=O)cc(C)c3cc2c1CN [AMT, 4'-aminomethyl-4,5',8-trimethylpsoralen]
hypotonic shock response (HSR) and ADP aggregation response relative to the control [1]: substantial reduction | cell damage [2]: unacceptable levels of cell damage

CC[N+](CC)(CC)CCCOc1c2occc2c(Br)c2ccc(=O)oc12 [Sensitizer #8B, 5-Bromo-8 (γ-Triethylaminopropyloxy) Psoralen Hydrochloride]
mutagenicity [3]: non-mutagenic | improvement in the level of viral inactivation (brominated versus non-brominated) [4]: ≤ 400 fold | log reduction at 30 µg/mL ([5]; Treated, 0 Hour, 0.03 mg/mL, UVA 10 min (4.2 J/cm^2), n = 4, read-out: V.I): 5.3 ± 0.2 | log reduction at 30 µg/mL ([5]; read-out: viral reduction): > 5.3 | in vitro biochemical and biophysical properties of red cells ([6]; Example 16 text, words): without any significant alterations | % Hemichrome ([6]; Day 1, 0.3 mg/mL): 1.9 ± 1.5% | % Met Hb. ([6]; Day 1, 0.3 mg/mL): 2.9 ± 1.5% | % Oxy Hb. ([6]; Day 1, 0.3 mg/mL): 95.2 ± 0.1% | MCH ([6]; Day 1, 0.3 mg/mL): 30.9 ± 0.1 | MCHC ([6]; Day 1, 0.3 mg/mL): 34.9 ± 0.4 | MCV ([6]; Day 1, 0.3 mg/mL): 88.8 ± 2.5 | DI Max % control ([6]; Day 1, 0.3 mg/mL): 97.4 ± 3.6 % control | % Hemichrome ([6]; Day 2, 0.3 mg/mL): 0.6 ± 0.9% | % Met Hb. ([6]; Day 2, 0.3 mg/mL): 1.7 ± 1.7% | % Oxy Hb. ([6]; Day 2, 0.3 mg/mL): 97.7 ± 1.7% | MCH ([6]; Day 2, 0.3 mg/mL): 30.3 ± 0.4 | MCHC ([6]; Day 2, 0.3 mg/mL): 33.8 ± 0.9 | MCV ([6]; Day 2, 0.3 mg/mL): 89.8 ± 1.7 | DI Max % control ([6]; Day 2, 0.3 mg/mL): 99.6 ± 3.8 % control | % Hemichrome ([6]; Day 7, 0.3 mg/mL): 0.2 ± 0.2% | % Met Hb. ([6]; Day 7, 0.3 mg/mL): 1.4 ± 1.2% | % Oxy Hb. ([6]; Day 7, 0.3 mg/mL): 98.5 ± 1.0% | MCH ([6]; Day 7, 0.3 mg/mL): 30.1 ± 0.8 | MCHC ([6]; Day 7, 0.3 mg/mL): 33.6 ± 1.6 | MCV ([6]; Day 7, 0.3 mg/mL): 89.8 ± 1.7 | DI Max % control ([6]; Day 7, 0.3 mg/mL): 99.0 ± 5.9 % control | platelet in vitro properties ([7]; Example 15 text, words): excellent retention of platelet in vitro properties | ADP Agg. ([7]; 0 Hour): 43 ± 12 | Cell count ([7]; 0 Hour): 474 ± 20 | Collagen ([7]; 0 Hour): 72 ± 3 | HSR ([7]; 0 Hour): 65 ± 8 | Morphology ([7]; 0 Hour): 233 ± 17 | pH ([7]; 0 Hour): 7.2 ± 0.1 | ADP Agg. ([7]; 24 Hours): 34 ± 19 | Cell count ([7]; 24 Hours): 499 ± 50 | Collagen ([7]; 24 Hours): 65 ± 3 | HSR ([7]; 24 Hours): 65 ± 6 | Morphology ([7]; 24 Hours): 230 ± 19 | pH ([7]; 24 Hours): 7.1 ± 0.2 | Collagen ([7]; 43 Hours): 60 ± 4 | pH ([7]; 43 Hours): 6.8 ± 0.1 | HSR ([7]; 48 Hours): 70 ± 6 | log reduction at 30 µg/mL [8]: 6.6 | Number of Revertan Colonies ([9]; TA98, with S-9, average of duplicate plates): 83 | Number of Revertan Colonies ([9]; TA98, without S-9, average of duplicate plates): 55 | Number of Revertan Colonies ([10]; TA1537, with S-9, average of duplicate plates): 26 | Number of Revertan Colonies ([10]; TA1537, without S-9, average of duplicate plates): 36 | Number of Revertan Colonies ([11]; TA100, with S-9, average of duplicate plates): 245 | Number of Revertan Colonies ([11]; TA100, without S-9, average of duplicate plates): 164 | Number of Revertan Colonies ([12]; TA1535, with S-9, average of duplicate plates): 197 | Number of Revertan Colonies ([12]; TA1535, without S-9, average of duplicate plates): 173 | Number of Revertan Colonies ([13]; TA1538, with S-9, average of duplicate plates): 25 | Number of Revertan Colonies ([13]; TA1538, without S-9, average of duplicate plates): 22 | log reduction at 300 µg/mL ([14]; 6 h, read-out: viral reduction): > 6.6 | log reduction at 300 µg/mL ([14]; Treated, Day 1, 0.3 mg/mL, UVA 6 hours (151.2 J/cm^2), read-out: Viral Reduction (log)): 6.6 ± 0.1
